# In patent US5856574A, “Ortho-subsituted benzoylguanidines, process for their preparation, their use as a medicament or diagnostic, and medicament containing them” (Hoechst Aktiengesellschaft, priority 1996, dated 1999):
# Structures can show the parent of a compound that is named as a salt.
# Experiments:
# [1] = target: T1, rabbit erythrocyte Na^+ /H^+ exchanger (Oryctolagus cuniculus, UniProt P23791); assay: Inhibition of the rabbit erythrocyte Na^+ /H^+ exchanger (amiloride-sensitive sodium influx, flame photometry); type: cell-based, rabbit (New Zealand White); details: rabbit erythrocytes, cholesterol-fed, 37° C., pH 7.4
# T1 construct: determine the Na+influx into the erythrocytes by way of Na^+ /H^+ exchange; endogenous in cells; host or cells: intact erythrocytes in heparinised blood of cholesterol-fed New Zealand White rabbits
# T1 sequence (P23791 whole entry): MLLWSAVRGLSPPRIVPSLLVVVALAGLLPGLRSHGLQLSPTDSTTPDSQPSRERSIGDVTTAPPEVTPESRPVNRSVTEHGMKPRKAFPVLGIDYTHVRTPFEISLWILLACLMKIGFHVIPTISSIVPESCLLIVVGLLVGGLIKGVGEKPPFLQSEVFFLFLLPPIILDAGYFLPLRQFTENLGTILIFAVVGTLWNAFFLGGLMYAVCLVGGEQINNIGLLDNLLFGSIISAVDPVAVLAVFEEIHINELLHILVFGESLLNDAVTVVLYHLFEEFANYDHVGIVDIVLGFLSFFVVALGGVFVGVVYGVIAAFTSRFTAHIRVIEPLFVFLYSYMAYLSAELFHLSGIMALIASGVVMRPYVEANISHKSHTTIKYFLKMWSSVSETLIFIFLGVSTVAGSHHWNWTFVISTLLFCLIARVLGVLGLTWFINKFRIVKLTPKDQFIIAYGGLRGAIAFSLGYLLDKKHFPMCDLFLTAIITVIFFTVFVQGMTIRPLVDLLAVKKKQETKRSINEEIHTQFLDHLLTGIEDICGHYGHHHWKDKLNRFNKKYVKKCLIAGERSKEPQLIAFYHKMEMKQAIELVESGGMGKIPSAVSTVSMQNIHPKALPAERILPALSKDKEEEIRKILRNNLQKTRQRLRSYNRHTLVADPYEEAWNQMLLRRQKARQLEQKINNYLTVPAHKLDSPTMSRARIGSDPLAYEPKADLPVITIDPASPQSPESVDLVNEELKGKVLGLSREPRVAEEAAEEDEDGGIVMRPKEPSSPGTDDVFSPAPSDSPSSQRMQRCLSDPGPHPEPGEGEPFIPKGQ
# Source text: Inhibition of the rabbit erythrocyte Na^+ /H^+ exchanger
# New Zealand White rabbits (Ivanovas) were given a standard diet containing 2% cholesterol for six weeks in order to activate Na^+ /H^+ exchange and thereby making it possible to use flame photometry to determine the Na+influx into the erythrocytes by way of Na^+ /H^+ exchange. The blood was withdrawn from the aural arteries and rendered incoagulable by adding 25 IU of potassium heparin. A part of each sample was used for determining the hematocrit in duplicate by means of centrifugation. Aliquots of in each case 100 μl were used for measuring the initial content of Na^+ in the erythrocytes.
# In order to determine the amiloride-sensitive sodium influx, 100 μl of each blood sample were in each case incubated, at 37° C. and pH 7.4, in 5 ml of a hyper osmolar salt/sucrose medium (mmol/l: 140 NaCl, 3 KCL, 150 sucrose, 0.1 ouabain, 20 tris(hydroxymethyl)aminomethane). After that, the erythrocytes were washed three times with an ice-cold MgCl2 /ouabain solution (mmol/l: 112 MgCl2, 0.1 ouabain) and hemolyzed in 2.0 ml of distilled water. The intracellular content of sodium was determined by flame photometry.
# The net Na^+ influx was calculated from the difference between the initial sodium values and the sodium content of the erythrocytes after incubation. The amiloride-inhibitable sodium influx was obtained from the difference in the sodium content of the erythrocytes after incubating them with and without […] amiloride. This procedure was also used in the case of the novel compounds.
# [2] = Plasma elimination half life, dog, i.v.; type: in vivo; details: iv
# [3] = Plasma elimination half life, rat, i.v.; type: in vivo; details: iv
# [4] = Intraduodenal bioavailability; type: in vivo
IC50 [1],half-life [2],half-life [3],Intraduodenal bioavailability [4],SMILES
60 nM,,,,"NC(N)=NC(=O)c1cc(C(F)(F)F)cc(C2CCCC2)c1Cl [Example 6, 2-Chloro-3-cyclopentyl-5-trifluoromethylbenzoylguanidine hydrochloride]"
30 nM,,,,"NC(N)=NC(=O)c1cc(C(F)(F)F)c(C2CCCC2)cc1Cl [Example 7, 2-Chloro4-cyclopentyl-5-trifluoromethylbenzoylguanidine hydrochloride]"
10 nM,,,,"CCCc1cc(Cl)c(C(=O)N=C(N)N)cc1C(F)(F)F [Example 8, 2-Chloro4-n-propyl-5-trifluoromethylbenzoylguanidine hydrochloride]"

# Further lines, the compound ahead of its results:
SMILES,IC50 [1],half-life [2],half-life [3],Intraduodenal bioavailability [4]
"COc1cc(Cl)c(C(=O)N=C(N)N)cc1C(F)(F)F [Example 1, 2-Chloro4-methoxy-5-trifluoromethylbenzoylguanidine hydrochloride]",20 nM,66 min,19.2 min,good
"CCCc1cc(C(F)(F)F)cc(C(=O)N=C(N)N)c1Cl [Example 4, 2-Chloro-3-n-propyl-5-trifluoromethylbenzoylguanidine hydrochloride]",70 nM,,,
"CC(C)c1cc(C(F)(F)F)cc(C(=O)N=C(N)N)c1Cl [Example 5, 2-Chloro-3-isopropyl-5-trifluoromethylbenzoylguanidine hydrochloride]",20 nM,,42 min,good
"NC(N)=NC(=O)c1cc(C(F)(F)F)cc(I)c1Cl [Example 2, 2-Chloro-3-iodo-5-trifluoromethylbenzoylguanidine hydrochloride]",50 nM,,,
